This is an account of results in the NIST ThermoML archive (doi:10.1021/je400004j).

The nature of this data set: xn = mol fraction of the nth substance listed. To be noted: 298.15 K, Ring tensiometer.

± gives the expanded uncertainty stated by the source.

In general, surface tension liquid-gas refers to the work needed to enlarge the surface of a liquid by unit area. `CCOP(=O)([O-])OCC.CCn1cc[n+](CC)c1` [1,3-diethyl-1H-imidazol-3-ium diethyl phosphate] + CCO: the surface tension liquid-gas runs as follows: (x1 = 0.1) 22.6 ± 0.3 mN/m; (x1 = 0.2) 23.4 ± 0.4 mN/m; (x1 = 0.3) 24.6 ± 0.4 mN/m; (x1 = 0.4) 26.3 ± 0.4 mN/m; (x1 = 0.5) 27.8 ± 0.4 mN/m; (x1 = 0.6) 29.6 ± 0.4 mN/m. Moreover, the surface tension liquid-gas amounted to 31.1 ± 0.4 mN/m (x1 = 0.7), 32.5 ± 0.5 mN/m (x1 = 0.8), 34.1 ± 0.5 mN/m (x1 = 0.9) and 35.5 ± 0.5 mN/m (x1 = 1).

For `CCOP(=O)([O-])OCC.CCn1cc[n+](CC)c1` [1,3-diethyl-1H-imidazol-3-ium diethyl phosphate] + CO, the surface tension liquid-gas by setting is: (x1 = 0.1) 26.4 ± 0.4 mN/m; (x1 = 0.2) 28.6 ± 0.4 mN/m; (x1 = 0.3) 30.3 ± 0.4 mN/m; (x1 = 0.4) 31.6 ± 0.5 mN/m; (x1 = 0.5) 33 ± 0.5 mN/m; (x1 = 0.6) 34 ± 0.5 mN/m. For the same molecule, the surface tension liquid-gas (x1 = 0.7) was 34.4 ± 0.5 mN/m, the surface tension liquid-gas (x1 = 0.8) was found to be 36.1 ± 0.5 mN/m, the surface tension liquid-gas (x1 = 0.9) worked out at 35.9 ± 0.5 mN/m and the surface tension liquid-gas (x1 = 1) was 35.5 ± 0.5 mN/m.

In the case of `CCOP(=O)([O-])OCC.CCn1cc[n+](CC)c1` [1,3-diethyl-1H-imidazol-3-ium diethyl phosphate] + O, the surface tension liquid-gas by setting is: (x1 = 0.1) 40.7 ± 0.7 mN/m; (x1 = 0.2) 37.4 ± 0.5 mN/m; (x1 = 0.3) 37.2 ± 0.5 mN/m; (x1 = 0.4) 36.6 ± 0.5 mN/m; (x1 = 0.5) 36.4 ± 0.5 mN/m; (x1 = 0.6) 36.2 ± 0.5 mN/m. In addition, the surface tension liquid-gas was determined as 36 ± 0.5 mN/m (x1 = 0.7), 36.1 ± 0.5 mN/m (x1 = 0.8), 35.9 ± 0.5 mN/m (x1 = 0.9) and 35.5 ± 0.5 mN/m (x1 = 1).

Take `COP(=O)([O-])OC.Cn1cc[n+](C)c1` [1,3-dimethylimidazolium dimethylphosphate] + CCO: the surface tension liquid-gas reads like this: (x1 = 0.1) 23.2 ± 0.4 mN/m; (x1 = 0.2) 24.5 ± 0.4 mN/m; (x1 = 0.3) 26.1 ± 0.4 mN/m; (x1 = 0.4) 28.2 ± 0.4 mN/m; (x1 = 0.5) 30.5 ± 0.4 mN/m; (x1 = 0.6) 32.7 ± 0.5 mN/m. Also, the surface tension liquid-gas runs as follows: (x1 = 0.7) 35 ± 0.5 mN/m; (x1 = 0.8) 37.5 ± 0.5 mN/m; (x1 = 0.9) 41.4 ± 0.6 mN/m; (x1 = 1) 48.4 ± 0.6 mN/m.

As for `COP(=O)([O-])OC.Cn1cc[n+](C)c1` [1,3-dimethylimidazolium dimethylphosphate] + CO, the surface tension liquid-gas (x1 = 0.1) amounted to 26.9 ± 0.4 mN/m; the surface tension liquid-gas (x1 = 0.2) was 30.4 ± 0.4 mN/m; the surface tension liquid-gas (x1 = 0.3) is 33.1 ± 0.5 mN/m; the surface tension liquid-gas (x1 = 0.4) came out at 35.7 ± 0.5 mN/m; the surface tension liquid-gas (x1 = 0.5) is 38.1 ± 0.5 mN/m; the surface tension liquid-gas (x1 = 0.6) is listed as 40 ± 0.5 mN/m. Further, the surface tension liquid-gas reads like this: (x1 = 0.7) 41.6 ± 0.6 mN/m; (x1 = 0.8) 43.6 ± 0.6 mN/m; (x1 = 0.9) 46.2 ± 0.6 mN/m; (x1 = 1) 48.4 ± 0.6 mN/m.

For the molecule `COP(=O)([O-])OC.Cn1cc[n+](C)c1` [1,3-dimethylimidazolium dimethylphosphate] + O, the surface tension liquid-gas is, setting by setting: (x1 = 0.02) 67 ± 0.9 mN/m; (x1 = 0.04) 64.2 ± 0.9 mN/m; (x1 = 0.08) 59.5 ± 0.8 mN/m; (x1 = 0.1) 55.7 ± 0.8 mN/m; (x1 = 0.12) 53.6 ± 0.7 mN/m; (x1 = 0.14) 52.2 ± 0.7 mN/m. Also, the surface tension liquid-gas stood at 51.8 ± 0.7 mN/m (x1 = 0.2); 50.6 ± 0.7 mN/m (x1 = 0.3); 50 ± 0.7 mN/m (x1 = 0.4); 49.8 ± 0.7 mN/m (x1 = 0.5); 49.3 ± 0.7 mN/m (x1 = 0.6); 49.1 ± 0.7 mN/m (x1 = 0.7). In addition, the surface tension liquid-gas by setting is: (x1 = 0.8) 48.9 ± 0.7 mN/m; (x1 = 0.9) 48.6 ± 0.6 mN/m; (x1 = 1) 48.4 ± 0.6 mN/m.

For the molecule `CCCCn1cc[n+](CC)c1.CCOP(=O)([O-])OCC` [1-butyl-3-ethyl-1H-imidazol-3-ium diethyl phosphate] + CCO, the surface tension liquid-gas (x1 = 0.1) came to 22.6 ± 0.3 mN/m; the surface tension liquid-gas (x1 = 0.2) turned out to be 23.6 ± 0.4 mN/m; the surface tension liquid-gas (x1 = 0.3) is 24.7 ± 0.4 mN/m; the surface tension liquid-gas (x1 = 0.4) is on record as 26.1 ± 0.4 mN/m; the surface tension liquid-gas (x1 = 0.5) is 27.6 ± 0.4 mN/m; the surface tension liquid-gas (x1 = 0.6) was 28.5 ± 0.4 mN/m. Besides, the surface tension liquid-gas reads like this: (x1 = 0.7) 29.5 ± 0.4 mN/m; (x1 = 0.8) 30.5 ± 0.4 mN/m; (x1 = 0.9) 31.4 ± 0.4 mN/m; (x1 = 1) 32.2 ± 0.5 mN/m.

For the molecule `CCCCn1cc[n+](CC)c1.CCOP(=O)([O-])OCC` [1-butyl-3-ethyl-1H-imidazol-3-ium diethyl phosphate] + CO, the surface tension liquid-gas runs as follows: (x1 = 0.1) 26.1 ± 0.4 mN/m; (x1 = 0.2) 28.4 ± 0.4 mN/m; (x1 = 0.3) 29.8 ± 0.4 mN/m; (x1 = 0.4) 30.6 ± 0.4 mN/m; (x1 = 0.5) 30.9 ± 0.4 mN/m; (x1 = 0.6) 31.1 ± 0.4 mN/m. Besides, the surface tension liquid-gas (x1 = 0.7) was 31.4 ± 0.4 mN/m, the surface tension liquid-gas (x1 = 0.8) amounted to 32.3 ± 0.5 mN/m, the surface tension liquid-gas (x1 = 0.9) is reported as 32.2 ± 0.5 mN/m and the surface tension liquid-gas (x1 = 1) is 32.2 ± 0.5 mN/m.

Turning to `CCCCn1cc[n+](CC)c1.CCOP(=O)([O-])OCC` [1-butyl-3-ethyl-1H-imidazol-3-ium diethyl phosphate] + O, the surface tension liquid-gas is, setting by setting: (x1 = 0.02) 47.4 ± 1.6 mN/m; (x1 = 0.04) 42.4 ± 0.6 mN/m; (x1 = 0.08) 37.8 ± 0.6 mN/m; (x1 = 0.1) 35.9 ± 0.5 mN/m; (x1 = 0.12) 35.5 ± 0.5 mN/m; (x1 = 0.14) 35 ± 0.5 mN/m. Moreover, the surface tension liquid-gas (x1 = 0.2) was determined as 33.1 ± 0.5 mN/m; the surface tension liquid-gas (x1 = 0.3) was 32.9 ± 0.5 mN/m; the surface tension liquid-gas (x1 = 0.4) is 32.8 ± 0.5 mN/m; the surface tension liquid-gas (x1 = 0.5) amounted to 32.6 ± 0.5 mN/m; the surface tension liquid-gas (x1 = 0.6) is 32.5 ± 0.5 mN/m; the surface tension liquid-gas (x1 = 0.7) is recorded as 32.3 ± 0.5 mN/m. Moreover, the surface tension liquid-gas is reported as 32.3 ± 0.5 mN/m (x1 = 0.8), 32.2 ± 0.5 mN/m (x1 = 0.9) and 32.2 ± 0.5 mN/m (x1 = 1).

Turning to `CCCCn1cc[n+](C)c1.COP(=O)([O-])OC` [1-butyl-3-methyl-1H-imidazolium dimethylphosphate] + CCO, the surface tension liquid-gas runs as follows: (x1 = 0.1) 22.8 ± 0.3 mN/m; (x1 = 0.2) 23.6 ± 0.4 mN/m; (x1 = 0.3) 25 ± 0.4 mN/m; (x1 = 0.4) 26.9 ± 0.4 mN/m; (x1 = 0.5) 28.5 ± 0.4 mN/m; (x1 = 0.6) 30.5 ± 0.4 mN/m. Also, the surface tension liquid-gas (x1 = 0.7) stood at 32.3 ± 0.5 mN/m, the surface tension liquid-gas (x1 = 0.8) worked out at 34 ± 0.5 mN/m, the surface tension liquid-gas (x1 = 0.9) was found to be 36 ± 0.5 mN/m and the surface tension liquid-gas (x1 = 1) is recorded as 38 ± 0.5 mN/m.

For `CCCCn1cc[n+](C)c1.COP(=O)([O-])OC` [1-butyl-3-methyl-1H-imidazolium dimethylphosphate] + CO, the surface tension liquid-gas is given as 26.5 ± 0.4 mN/m (x1 = 0.1); 29.2 ± 0.4 mN/m (x1 = 0.2); 30.8 ± 0.4 mN/m (x1 = 0.3); 32.3 ± 0.5 mN/m (x1 = 0.4); 33.8 ± 0.5 mN/m (x1 = 0.5); 35.1 ± 0.5 mN/m (x1 = 0.6). For the same molecule, the surface tension liquid-gas runs as follows: (x1 = 0.7) 35.9 ± 0.5 mN/m; (x1 = 0.8) 38 ± 0.5 mN/m; (x1 = 0.9) 38.1 ± 0.5 mN/m; (x1 = 1) 38 ± 0.5 mN/m.

In the case of `CCCCn1cc[n+](C)c1.COP(=O)([O-])OC` [1-butyl-3-methyl-1H-imidazolium dimethylphosphate] + O, the surface tension liquid-gas is, setting by setting: (x1 = 0.1) 42.1 ± 0.6 mN/m; (x1 = 0.2) 40.9 ± 0.6 mN/m; (x1 = 0.3) 40.2 ± 0.5 mN/m; (x1 = 0.4) 39.4 ± 0.5 mN/m; (x1 = 0.5) 38.8 ± 0.5 mN/m; (x1 = 0.6) 38.3 ± 0.5 mN/m. In addition, the surface tension liquid-gas is, setting by setting: (x1 = 0.7) 38.2 ± 0.5 mN/m; (x1 = 0.8) 38 ± 0.5 mN/m; (x1 = 0.9) 38.1 ± 0.5 mN/m; (x1 = 1) 38 ± 0.5 mN/m.
